From US9896512B2, “Antitumor peptide derived from a complementarity determining region of a humanized monoclonal antibody to NAP12B transporter” (Recepta Biopharma S.A., priority 2010, dated 2018) come the findings set out here.

One data set deals with tumor cells. The data set can be described thus: Cell adherence assay (detachment with trypsin/EDTA). Type of data set: cell-based. Conditions: for adherence at peptide concentration of 1 mM (not suspended by trypsin/EDTA): 1 mM peptide; for adherence of tumor cells to the substrate: 96-well plates, RPMI 10% FCS, seen in B16F10-Nex2.1, U87MG, A5028 melanoma, SKBR3, SiHa, HCT cells. On the procedure:
At a lower dose, cells would be detached with trypsin/EDTA at rates inversely proportional to the peptide concentration. Conceivably, peptides RB9 and RB10 affected the cytoskeleton dynamics of cells, thus signaling increased cell adhesion.
B16F10-Nex2.1 cells (5×10^3) and U87-MG cells (1×10^4) were cultivated in 96-well plates and incubated with different concentrations of RB9 (SEQ ID NO: 8) and RB10 (SEQ ID NO: 9) from 0.01 to 1 mM (i.e., 0.01, 0.05, 0.1, 0.25, 0.7, 0.8 and 1 mM of RB9 and RB10 for B16F10-Nex 2.1 cells; and 0.25, 0.5, 0.75 and 1 mM of RB9 and RB10 for U87-MG cells). After 18 hours incubation, viable cells detached with trypsin/EDTA were counted using Trypan blue exclusion staining. All assays were performed in triplicate in two independent experiments.
SKBR3 cells (1×10^4) were cultivated in 96-well plates and incubated with RB9 (SEQ ID NO: 8) and RB10 (SEQ ID NO: 9). After 18 hours incubation, viable cells detached with trypsin/EDTA were counted using Trypan blue exclusion staining. Assays were performed in triplicate in two independent experiments. The A2058 human melanoma cells (1×10^4) were incubated for 4 hours at 37° C. in a humidified chamber with 5% CO2. Fresh media containing different peptide concentrations of RB9 and RB10 ranging from 0 to 1 mM (i.e., 0, 0.25, 0.5 and 1 mM) was added to the wells and incubated for 24 hours. The media was then aspirated, cells were detached with 30 μl/well of trypsin-EDTA for five minutes at 37° C. and viable cells were counted in a Neubauer chamber using Trypan blue. As shown in FIGS. 2A-2D, 50% of cells were trypsin-EDTA resistant at 630 and 610 μM RB9 and RB10, respectively.

In a further data set the test system is OVCAR-3 cells. As to the kind of experiment: Effect on ovarian carcinoma cells (trypsin-EDTA detachment, Trypan blue or MTT). Type of data set: cell-based, human. As to conditions: for cytotoxicity / activity against OVCAR-3 cells: 0 to 1 mM, 24 hours, Trypan blue / MTT; for hyper-adherent effect (detachment with trypsin/EDTA): up to 1 mM peptide. Here is the method: Viable OVCAR-3 cells (1×10^4)/well were distributed on a 96-well culture plate and incubated for […] with different concentrations of RB9 (SEQ ID NO: 8) ranging from 0 to 1 mM for 24 hours. Cells were detached with 30 μl/well of trypsin-EDTA for five minutes at 37° C. and counted in a Neubauer chamber with Trypan blue or estimated by the colorimetric MTT assay.

For data set [1], the system named is human ovary cancer OVCAR-3 cells. As to the kind of experiment: Cell migration, wound healing assay. Type of data set: cell-based. As to conditions: peptide 500 μM, 24 hours. On the procedure:
(§1) For the migration studies, 5×10^5 or 10^6 cells were distributed on 6-well plates and let them to adhere for 2 hours at 37° C./5% CO2. The culture medium was changed and the peptide was added at 500 μM overnight. The cell monolayer was “wounded” with a P1000 tip and incubated for 24 hours. Images of untreated cells (control) and peptide treated cells were captured with a JENOPTIK camera. Cell numbers (nuclei) were determined using the Pixcavator software version 5.0.

The test system of data set [2] is T75 primary human fibroblasts. As to the kind of experiment: Cell migration, wound healing assay. Type of data set: cell-based. As to conditions: normal non-tumorigenic cells. On the procedure:
as §1

The subject of data set [3] is FibroRP primary human fibroblasts. The data set can be described thus: Cell migration, wound healing assay. Type of data set: cell-based. Conditions: normal non-tumorigenic cells. Here is the method:
as §1

The subject of data set [4] is human colon cancer HCT cells. The data set can be described thus: Cell migration, wound healing assay. As to conditions: peptide 500 μM, 24 hours. Type of data set: cell-based. On the procedure: as §1
The test system of data set [5] is human breast cancer SKBr-3 cells. As to the kind of experiment: Cell migration, wound healing assay. Type of data set: cell-based. As to conditions: peptide 500 μM, 24 hours. On the procedure:
as §1

The test system of the next data set is 3T3 murine fibroblasts. The data set can be described thus: Cell migration, wound healing assay. Type of data set: cell-based. Conditions: normal non-tumorigenic cells. On the procedure: as §1
Data set [6] relates to human melanoma A2058 cells. As to the kind of experiment: Cell migration, wound healing assay. Type of data set: cell-based. Conditions: peptide 500 μM, 24 hours. On the procedure: as §1
The nature of the next data set: Solubility comparison. Type of data set: physicochemical. The text has this:
(§2) Peptides have variable half lives in the plasma due to the proteolytic activity and the renal filtration, which are relevant aspects in the pharmacokinetics of drug candidates.

Data set [7] can be described thus: In vivo peptide toxicity evaluation (histopathology). As to conditions: 300 μg via i.p., seven consecutive days. More on the design: species or system mice. On the procedure: Mice were injected with RB9 (SEQ ID NO: 8) for seven consecutive days (300 μg via i.p.) and were sacrificed thereafter for histopathology. […] Also the peptides were not hemolytic as shown in FIG. 21 for RB10M3 (SEQ ID NO: 31).

Data set [8] in a line: Peptide degradation by human plasma (HPLC / mass spectrum). Type of data set: in vitro ADME. On the procedure: as §2
To analyze the peptide in HPLC and Mass Spectrum, an aliquot of 200 μL was transferred to a new Eppendorf tube and proteins were precipitated with 20 μL trifluoroacetic acid for 5 minutes at 4° C. After centrifugation for 10 minutes at 14,000 rpm, the supernatant was analyzed in an LC/ESI-MS (Waters).
Regarding assays for determining time-lapse plasma degradation of RB9 peptide, peptide degradation by human plasma was monitored in HPLC and Mass spectra every 30 minutes as described above (FIG. 12). About 50% RB9 was cleaved after 2 hours of incubation at 37° C.

Data set [9] concerns B16F10-Nex2 cells. As to the kind of experiment: Growth inhibition (cell number by image analysis). Type of data set: cell-based, murine. On the procedure:
Viable B16F10-Nex2 cells (5×10^5)/well were distributed on a 6-well culture plate and incubated for 4 hours. Fresh medium containing 0 or 500 μM of RB10 ([…]) was added to the wells and incubated for 12 hours. Image was captured using a camera (Jenoptik) with the software Progres 2.8. The number of cells was detected using the software pixcavator (intelligent perception). After 12 hours with 0.5 mM of RB10, melanoma cells had fewer cells by 39% (FIG. 15); these cells were still able to proliferate but not to migrate. […] Magnification ×100.

Data set [10] concerns human cervix cancer HeLa cells. As to the kind of experiment: Cell migration, wound healing assay. Type of data set: cell-based. As to conditions: peptide 500 μM, 24 hours. On the procedure: as §1
For a further data set, the system named is melanoma. The data set can be described thus: Primary tumor development in a subcutaneous model. Type of data set: in vivo. Conditions: susceptible mice.
Data set [11] concerns B16F10-Nex2 cells. As to the kind of experiment: Superoxide anion production, dihydroethidium (DHE) assay. As to conditions: 1 mM, 18 hours. Type of data set: cell-based, murine. On the procedure:
Based on the internal interactions of components, such as, actin and peroxides in tumor cells, even leading to apoptosis, the production of anion superoxide in tumor cells treated with RB10 was examined by dihydroethidium (DHE) assay.
B16F10-Nex2 cells were treated with 1 mM RB10 for 18 hours or 5 mM H2O2 for 20 minutes. Treated cells with peptide or H2O2 and untreated cells were then incubated with DHE. Conversion of DHE to ethidium by oxidation was observed using fluorescence microscopy (Magnification 600×).

“Also recorded” adds a separate entry of the source. No end group written: not given here.

Consider `C[C@@H]1NC(=O)[C@H](CCCNC(=N)N)NC(=O)[C@H](C)NC(=O)[C@H]([C@@H](C)O)NC(=O)[C@H](CCC(=O)O)NC(=O)CNC(=O)[C@H](CCCNC(=N)N)NC(=O)[C@H](C)NC(=O)[C@@H](N)CSSC[C@@H](C(N)=O)NC(=O)CNC(=O)[C@H](CCC(N)=O)NC(=O)CNC(=O)[C@H](Cc2c[nH]c3ccccc23)NC(=O)[C@H](Cc2ccc(O)cc2)NC(=O)[C@H](C)NC(=O)[C@H](Cc2ccccc2)NC(=O)[C@H]([C@@H](C)O)NC1=O` [RB9, CARGETARATFAYWGQGC-NH2], for which the “adherence at peptide concentration of 1 mM (not suspended by trypsin/EDTA)” value in the data set on tumor cells is “hyper-adherence”. Besides, the “adherence of tumor cells to the substrate” value in the data set on tumor cells is “dose dependent increase of adherence”. Also, in the data set with OVCAR-3 cells, the “cytotoxicity / activity against OVCAR-3 cells” value was “inactive; also recorded: no significant decrease in viability; also recorded: lack of cytotoxicity”. The “hyper-adherent effect (detachment with trypsin/EDTA)” value in the data set on OVCAR-3 cells is recorded as “normally detached; also recorded: most cells were unaffected”. The “inhibition of cell migration” value in [1] is on record as “half inhibited; also recorded: partial inhibition”; in data set [2], “did not affect; also recorded: non-inhibition”; in data set [3], “did not affect; also recorded: non-inhibition”; in data set [4], “completely inhibited; also recorded: partial inhibition”; in [5], “completely inhibited; also recorded: complete inhibition”; in the data set on 3T3 murine fibroblasts it was “did not affect; also recorded: non-inhibition”. In addition, the “inhibition of cell migration” value in data set [6] is recorded as “completely inhibited; also recorded: complete inhibition”. The “solubility (comparison)” value in “Solubility comparison” was “more soluble than RB10”. In addition, the “toxicity, morphological alterations in liver, lung, heart, kidney and spleen” value in [7] was “No signs of toxicity or morphological alterations”. Also, the “degradation in human plasma at 24 hours” value in data set [8] (24 hours, 37° C.) is “whole peptide was degraded; also recorded: total degradation”. Also, the “peptide cleaved / degraded in human plasma” value in [8] (after 2 hours of incubation at 37° C.) came to 50%. The metabolised at 2 h, 1.67 mg/mL in [8] (human, human plasma, after 2 hours of incubation at 37° C., read-out: peptide cleaved / degraded in human plasma) is around 50%.

“CARGETARATFAYWGQG-NH2 [RB10, CARGETARATFAYWGQG-NH2]”: in the data set on B16F10-Nex2 cells [9] (0.5 mM, 12 hours), the “fewer cells than control” value stood at 39%. For the same compound, the “inhibition of growth” value with B16F10-Nex2 cells [9] (12 hours incubation) was “partial inhibition”. In addition, in the data set with tumor cells, the “adherence at peptide concentration of 1 mM (not suspended by trypsin/EDTA)” value is given as “hyper-adherence” and the “adherence of tumor cells to the substrate” value was “dose dependent increase of adherence”. Moreover, in the data set with OVCAR-3 cells, the “cytotoxicity / activity against OVCAR-3 cells” value was “inactive” and the “hyper-adherent effect (detachment with trypsin/EDTA)” value is given as “normally detached”. The “inhibition of cell migration” value in [10] was “complete or almost complete inhibition”. In addition, the “protection against development of a primary tumor” value in the data set with melanoma is “not against the development of a primary tumor”. Moreover, in the data set on B16F10-Nex2 cells [11], the “reaction with dihydroethidium (anion superoxide production)” value is listed as “positive”.
